Experimental data reported in patent US7875601B2, “Cancer treatment with epothilones” (Novartis AG, priority 1998, dated 2011).

What was measured:
[1] = GLP toxicology study in dogs; assay type: in vivo; conditions: dog
Text: Inclusion Criteria • The following criteria must be met for inclusion into the study: • 1. Male or female patients >18 years of age. • 2. […] At least one measurable, evaluable, or non-evaluable site of disease as defined by Southwestern Oncology Group (SWOG) Solid Tumor Response Criteria including tumor marker value that is above the institutional upper limit of normal. • 4. Women of childbearing potential must have a negative serum β-HCG pregnancy test prior to the initiation of study drug. Male and female patients of reproductive potential must agree to employ an effective method of birth control throughout the study and for up to 3 months following discontinuation of study drug. • 5. World Health Organization (WHO) Performance Status Score of ≦2. • 6. Life expectancy of at least 3 months. • 7. Written informed consent is obtained prior to any screening procedures. Exclusion Criteria • Exclusion from the study is required if any of the following apply: • 1. Female patients who are pregnant or breast-feeding. Postmenopausal women must be amenorrheic for at least 12 months to be considered of non-childbearing potential. • 2. […] This dose is calculated as one-third of the toxic dose low (TDL) in the most sensitive species studied which, for epothilone B, is the dog. […]

PC-3M (Prostate) = test: Antiproliferative assay, PC-3M; assay type: cell-based, human; conditions: 3 d exposure, mean ± SD, read-out: IC50 for growth inhibition
Description: A human androgen-independent prostate cancer cell line is used to establish subcutaneous and orthotopic models in mice. The human metastatic prostate carcinoma PC-3M is obtained from Dr. I. J. Fidler (MD Anderson Cancer Center, Houston, Tex., USA) and is cultured in Ham's F12K media supplemented with 7% v/v FBS. The PC-3M cell line is the result of isolation from liver metastasis produced in nude mice subsequent to intrasplenic injection of PC-3 cells [ATCC CRL 1435; American Type Culture Collection (Rockville, Md., USA)], and they can grow in Eagle's MEM supplemented with 10% fetal bovine serum, sodium pyruvate, non-essential amino acids, L-glutamine, a two-fold vitamin solution (Gibco Laboratories, Long Island, N.Y.) and penicillin-streptomycin (Flow Laboratories, Rockville, Md.). The PC-3M cell line is hormone-insensitive (that is, it grows in the absence of androgens). […] No normal Y chromosomes can be detected by Q-band analysis.
Antiproliferative assays are performed as previously described (Int. J. Cancer 43, 851-6 (1989)). […] After washing, the dye is eluted with 3% v/v HCl and the optical density measured at 665 nm with a SpectraMax 340 (Bucherer, Basel, Switzerland). IC50 values are determined by a computerized system (SoftPro, Bucherer, Basel, Switzerland) using the formula (OD test−OD start)/(OD control−OD start)×100. […]

HCT-15 (Colon) = test: Antiproliferative assay, HCT-15; assay type: cell-based, human; conditions: HCT-15, 5 d exposure, mean ± SD, n = 3; read-out: IC50 for growth inhibition
Text: Human colorectal adenocarcinoma cell line HCT-15 (ATCC CCL 225) is from the American Type Culture Collection (Rockville, Md., USA), and the cells are cultivated in vitro as recommended by the supplier. HCT-15 is an epithelial-like cell line. (Cancer Res. 39: 1020-25 [1979]) that is multi-drug resistant by virtue of over-expression of P-glycoprotein (P-gp, gp170, MDR-1;Anticancer Res. 11: 1309-12 [1991]; J. Biol. Chem. 264: 18031-40 [1989]; Int. J. Cancer 1991; 49: 696-703 [1991]) and glutathione-dependent resistance mechanisms (Int. J. Cancer 1991; 49: 688-95 [1991]).
Antiproliferative assays are performed as previously described (Int. J. Cancer 43, 851-6 (1989)). Briefly, cells are seeded at 1.5×10^3 cells/well into 96-well microtiter plates and incubated overnight. Compounds are added in serial dilutions on day 1. The plates are then incubated for an additional 2 to 5 days, allowing for at least one cell doubling (cell line dependent), after which the cells are fixed with 3.3% v/v glutaraldehyde, washed with water and stained with 0.05% w/v methylene blue. After washing, the dye is eluted with 3% v/v HCl and the optical density measured at 665 nm with a SpectraMax 340 (Bucherer, Basel, Switzerland). IC50 values are determined by a computerized system (SoftPro, Bucherer, Basel, Switzerland) using the formula (OD test−OD start)/(OD control−OD start)×100. […]

A549 (Lung) = test: Antiproliferative assay, A549; assay type: cell-based, human; conditions: A549, 5 d exposure, mean ± SD, n = 3 (epothilone B n = 2); read-out: IC50 for growth inhibition
Description: Antiproliferative assays are performed as previously described (Int. J. Cancer 43, 851-6 (1989)). Briefly, cells are seeded at 1.5×10^3 cells/well into 96-well microtiter plates and incubated overnight. Compounds are added in serial dilutions on day 1. The plates are then incubated for an additional 2 to 5 days, allowing for at least one cell doubling (cell line dependent), after which the cells are fixed with 3.3% v/v glutaraldehyde, washed with water and stained with 0.05% w/v methylene blue. After washing, the dye is eluted with 3% v/v HCl and the optical density measured at 665 nm with a SpectraMax 340 (Bucherer, Basel, Switzerland). IC50 values are determined by a computerized system (SoftPro, Bucherer, Basel, Switzerland) using the formula (OD test−OD start)/(OD control−OD start)×100. IC50 is defined as the drug concentration which leads to 50% of cells per well compared to control cultures (100%) at the end of incubation period.

In the case of `C/C(=C\c1csc(C)n1)[C@@H]1C[C@@H]2O[C@]2(C)CCC[C@H](C)[C@H](O)[C@@H](C)C(=O)C(C)(C)[C@@H](O)CC(=O)O1` [epothilone B], the Mortalities ([1]; 0.1 mg/kg, repeated once 3 weeks later) is reported as “no mortalities”, the “toxic dose low (TDL)” value ([1]; most sensitive species, estimated) is reported as about 0.65 mg/kg and the IC50 (PC-3M (Prostate)) is reported as 3.82 ± 0.47 nM. The IC50 (HCT-15 (Colon)) was 0.41 ± 0.15 nM and the IC50 (A549 (Lung)) was 0.19 ± 0.12 nM.
